Results taken from ChEMBL document CHEMBL6182851, “Discovery of dual CDK4/6 and BRD4 inhibitor as apoptosis and autophagy inducers against NSCLC in vitro and in vivo” (Eur J Med Chem, 2025).
Active and inactive are the calls of the source. The rule behind the calls is not given here.

Legend:
NCI-H460 [1] = assay: Induction of apoptosis in human NCI-H460 cells assessed as late apoptotic cells at 20 uM incubated for 48 hrs in presence of ribociclib by Annexin V-PE/7-AAD staining based flow cytometric analysis (reference value: 3.76 %); type: functional
NCI-H460 [2] = assay: Induction of autophagy in human NCI-H460 cells assessed as increase in autophagosomes at 20 uM incubated for 48 hrs by MDC staining and LC3B immunofluorescence analysis; type: functional, cell-based
NCI-H460 [3] = assay: Antitumor activity against human NCI-H460 cells xenografted in female BALB/c nude mouse assessed as tumor growth inhibition at 50 mg/kg, ip administered for 21 consecutive days relative to control; type: functional; conditions: NCI-H460, 504 h, time 21 day, read-out: TGI
NCI-H460 [4] = assay: Induction of apoptosis in human NCI-H460 cells assessed as necrotic cells at 20 uM incubated for 48 hrs by Annexin V-PE/7-AAD staining based flow cytometric analysis (reference value: 0.79 %); type: functional
NCI-H460 [5] = assay: Induction of autophagy in human NCI-H460 cells assessed as increase in acidic vesicles at 20 uM incubated for 48 hrs by MDC staining and LC3B immunofluorescence analysis; type: functional, cell-based
NCI-H460 [6] = assay: Induction of cell cycle arrest in human NCI-H460 cells assessed as accumulation of cells at G1 phase at 20 uM incubated for 48 hrs by PI staining based flow cytometric analysis (reference value: 56.7 %); type: functional
NCI-H460 [7] = assay: Induction of cell cycle arrest in human NCI-H460 cells assessed as accumulation of cells at S phase at 20 uM in presence of ribociclib incubated for 48 hrs by PI staining based flow cytometric analysis (reference value: 33.3 %); type: functional
NCI-H1299 [8] = assay: Antitumor activity against human NCI-H1299 cells assessed as inhibition of cell viability incubated for 48 hrs in presence of ribociclib by MTT assay; type: functional, cell-based; conditions: NCI-H1299, 48 h
NCI-H460 [9] = assay: Antitumor activity against human NCI-H460 cells xenografted in female BALB/c nude mouse assessed as tumor growth inhibition at 50 mg/kg, ip administered for 21 consecutive days in presence of ribociclib relative to control; type: functional; conditions: NCI-H460, 504 h, time 21 day, read-out: TGI
NCI-H460 [10] = assay: Induction of cell cycle arrest in human NCI-H460 cells assessed as accumulation of cells at S phase at 20 uM incubated for 48 hrs by PI staining based flow cytometric analysis (reference value: 33.3 %); type: functional
NCI-H460 [11] = assay: Induction of apoptosis in human NCI-H460 cells assessed as necrotic cells at 20 uM incubated for 48 hrs in presence of ribociclib by Annexin V-PE/7-AAD staining based flow cytometric analysis (reference value: 0.79 %); type: functional
[12] = target: Bromodomain-containing protein 4 (Homo sapiens) (UniProt O60885); conditions: dose 1000.0 nM
Description: Inhibition of BRD4 BD2 (unknown origin) assessed as inhibition ratio at 1000 nM relative to control

NCI-H460 [13] = assay: Induction of cell cycle arrest in human NCI-H460 cells assessed as accumulation of cells at G2 phase at 20 uM incubated for 48 hrs by PI staining based flow cytometric analysis (reference value: 11.0 %); type: functional
A549 [14] = assay: Antitumor activity against human A549 cells assessed as inhibition of cell viability incubated for 48 hrs in presence of ribociclib by MTT assay; type: functional, cell-based; conditions: A549, 48 h
NCI-H460 [15] = assay: Antitumor activity against human NCI-H460 cells assessed as inhibition of cell viability incubated for 48 hrs in presence of ribociclib by MTT assay; type: functional, cell-based; conditions: NCI-H460, 48 h
NCI-H460 [16] = assay: Induction of apoptosis in human NCI-H460 cells assessed as early apoptotic cells at 20 uM incubated for 48 hrs in presence of ribociclib by Annexin V-PE/7-AAD staining based flow cytometric analysis (reference value: 3.58 %); type: functional
NCI-H460 [17] = assay: Induction of cell cycle arrest in human NCI-H460 cells assessed as accumulation of cells at G2 phase at 20 uM in presence of ribociclib incubated for 48 hrs by PI staining based flow cytometric analysis (reference value: 11.0 %); type: functional
NCI-H460 [18] = assay: Induction of apoptosis in human NCI-H460 cells assessed as late apoptotic cells at 20 uM incubated for 48 hrs by Annexin V-PE/7-AAD staining based flow cytometric analysis (reference value: 3.76 %); type: functional
A549 [19] = assay: cells; conditions: Homo sapiens, A549, 48 h
Description: Antitumor activity against human A549 cells assessed as inhibition of cell viability incubated for 48 hrs by MTT assay

NCI-H1299 [20] = assay: cells; conditions: Homo sapiens, NCI-H1299, 48 h
Description: Antitumor activity against human NCI-H1299 cells assessed as inhibition of cell viability incubated for 48 hrs by MTT assay

NCI-H460 [21] = assay: Induction of cell cycle arrest in human NCI-H460 cells assessed as accumulation of cells at G1 phase at 20 uM in presence of ribociclib incubated for 48 hrs by PI staining based flow cytometric analysis (reference value: 56.7 %); type: functional
NCI-H460 [22] = assay: cells; conditions: Homo sapiens, NCI-H460, 48 h
Description: Antitumor activity against human NCI-H460 cells assessed as inhibition of cell viability incubated for 48 hrs by MTT assay

NCI-H460 [23] = assay: Induction of apoptosis in human NCI-H460 cells assessed as early apoptotic cells at 20 uM incubated for 48 hrs by Annexin V-PE/7-AAD staining based flow cytometric analysis (reference value: 3.58 %); type: functional
NCI-H460 [24] = assay: Induction of autophagy in human NCI-H460 cells assessed as increase in number of autophagosomes at 20 uM in presence of ribociclib incubated for 48 hrs by MDC staining and LC3B immunofluorescence analysis; type: functional, cell-based

## COc1cc(OC)c2c(=O)[nH]c(-c3cc(C)c(OCCO)c(C)c3)nc2c1 [APABETALONE]
NCI-H460 [1]
  Activity: 5.71%
NCI-H460 [2]
  Activity: inactive
NCI-H460 [3]
  inhibition in vivo at 50 mg/kg: 37.5%
NCI-H460 [4]
  Activity: 1.59%
NCI-H460 [5]
  Activity: inactive
NCI-H460 [6]
  Activity: 56%
NCI-H460 [7]
  Activity: 9.38%
NCI-H1299 [8]
  IC50: 8.16 µM
NCI-H460 [9]
  inhibition in vivo at 50 mg/kg: 72%
NCI-H460 [10]
  Activity: 30.1%
NCI-H460 [11]
  Activity: 1.11%
[12]
  inhibition: 89.8%
NCI-H460 [13]
  Activity: 13%
A549 [14]
  IC50: 18.8 µM
NCI-H460 [15]
  IC50: 10.3 µM
NCI-H460 [16]
  Activity: 13.8%
NCI-H460 [17]
  Activity: 4.4%
NCI-H460 [18]
  Activity: 4.99%
A549 [19]
  IC50: > 40 µM
NCI-H1299 [20]
  IC50: 18.4 µM
NCI-H460 [21]
  Activity: 87.9%
NCI-H460 [22]
  IC50: > 40 µM
NCI-H460 [23]
  Activity: 2.05%
NCI-H460 [24]
  Activity: inactive
